Tested on: THP-1 cells
Experiment: MCP-1 mediated calcium flux in THP-1 cells
Assay type: cell-based, human
Conditions: stimulation of THP-1 cells with hMCP-1; dose response curves; read-out: approximate EC50 for rise in [Ca2+]i
Method: b) MCP-1 Mediated Calcium Flux in THP-1 Cells
The human monocytic cell line THP-1 was grown in a synthetic cell culture medium RPMI 1640 supplemented with 10% foetal calf serum, 2 mM glutamine and Penicillin-Streptomycin (at 50 μg streptomycin/mil, Gibco BRL). THP-1 cells were washed in HBSS (lacking Ca^2+ and Mg^2+)+1 mg/ml BSA and resuspended in the same buffer at a density of 3×10^6 cells/ml. The cells were then loaded with […] FURA-2/AM for 30 min at 37° C., washed twice in HBSS, and resuspended at 1×10^6 cells/ml. […] The cuvette was placed in a fluorescence spectrophotometer (Perkin Elmer, Norwalk, Conn.) and preincubated for 4 min at 37° C. with stirring. Fluorescence was recorded over 70 sec and cells were stimulated by addition of hMCP-1 to the cuvette after 10 sec. [Ca^2+]i was measured by excitation at 340 nm and 380 nm alternately and subsequent measurement of the intensity of the fluorescence emission at 510 nm. […] Rmax is the maximal fluorescence ratio determined after addition of […] Ionomycin, Rmin is the minimal ratio determined by the subsequent addition of a Ca^2+ free solution containing 5 mM EGTA, and Sf2/Sb2 is the ratio of fluorescence values at 380 nm excitation determined at Rmin and Rmax, respectively. […]

EC50 | Molecule
~2 nM | MCP-1: human Monocyte Chemoattractant Protein-1, a C—C chemokine; natural ligand used to validate the assays

Tested on: THP-1 cells
Experiment: hMCP-1 mediated chemotaxis assay
Assay type: cell-based, human
Conditions: hMCP-1 induced concentration dependent cell migration
Method: c) hMCP-1 Mediated Chemotaxis Assay.
In vitro chemotaxis assays were performed using either the human monocytic cell line THP-1 or peripheral blood mixed monocytes obtained from fresh human blood purified by erythrocyte sedimentation followed by density gradient centrifugation over 9.6%(w/v) sodium metrizoate and 5.6%(w/v) polysaccharide, density 1.077 g/ml (Lymphoprep™ Nycomed). Cell migration through polycarbonate membranes was measured by enumerating those passing through either directly by Coulter counting or indirectly by use of a colourimetric viability assay measuring the cleavage of a tetrazolium salt by the mitochondrial respiratory chain (Scudiero D. A. et al. 1988, Cancer Res., 48, 48274833).
Chemoattractants were introduced into a 96-well microtiter plate which forms the lower well of a chemotaxis chamber fitted with a PVP-free 5 μm poresize polycarbonate adhesive framed filter membrane (NeuroProbe MB series, Cabin John, Md. 20818, USA) according to the manufacturer's instructions. The chemoattractant was diluted as appropriate in synthetic cell culture medium, RPMI 1640 (Gibco) supplemented with 2 mM glutamine and 0.5% BSA. […] The plate was incubated at 37° C. for 3 h and the absorbance of the soluble formazan product was read on a microtitre plate reader at 450 nm. […]

Molecule | concentration of maximal cell migration (biphasic response)
MCP-1: human Monocyte Chemoattractant Protein-1, a C—C chemokine; natural ligand used to validate the assays | 0.5-1.0 nm

Target: T1, MCP-1 receptor B (CCR2B) (Homo sapiens, UniProt P41597)
T1 construct: expressed in transfected cells; membrane fragments
T1 sequence (P41597 1-360 isoform P41597-2): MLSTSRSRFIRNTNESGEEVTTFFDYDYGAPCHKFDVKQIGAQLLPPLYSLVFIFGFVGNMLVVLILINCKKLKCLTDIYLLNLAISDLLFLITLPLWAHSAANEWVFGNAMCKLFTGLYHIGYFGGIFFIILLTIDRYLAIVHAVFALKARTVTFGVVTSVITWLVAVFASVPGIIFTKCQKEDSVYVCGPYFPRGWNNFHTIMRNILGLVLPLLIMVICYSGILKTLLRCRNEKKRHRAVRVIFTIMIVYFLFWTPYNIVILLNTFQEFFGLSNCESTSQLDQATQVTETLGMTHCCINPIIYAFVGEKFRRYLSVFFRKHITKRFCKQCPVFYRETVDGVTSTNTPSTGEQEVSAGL
Experiment: hMCP-1 receptor-binding assay (125I-MCP-1 competition on CHO-CCR2B cell membranes)
Conditions: competition with 100 pM labelled MCP-1; CHO-CCR2B cell membranes; read-out: IC50 in the hMCP-1 receptor binding assay
From the text: a) hMCP-1 Receptor-Binding Assay i) Cloning and Expression of hMCP-1 Receptor
The MCP-1 receptor B (CCR2B) cDNA was cloned by PCR from THP-1 cell RNA using suitable oligonucleotide primers based on the published MCP-1 receptor sequences (Charo et al., 1994, Proc. Natl. Acad. Sci. USA, 91, 2752). The resulting PCR products were cloned into vector PCR-II™ (InVitrogen, San Diego, Calif.). Error free CCR2B cDNA was subcloned as a Hind III-Not I fragment into the eukaryotic expression vector pcDNA3 (InVitrogen) to generate pcDNA3/CC-CKR2A and pcDNA3/CCR2B respectively.
Linearised pcDNA3/CCR2B DNA was transfected into CHO-K1 cells by calcium phosphate precipitation (Wigler et al., 1979, Cell, 16, 777). Transfected cells were selected by the addition of Geneticin Sulphate (G418, Gibco BRL) at 1 mg/ml, 24 hours after the cells had been transfected. Preparation of RNA and Northern blotting were carried out as described previously (Needham et al., 1995, Prot. Express. Purific., 6, 134). CHO-K1 clone 7 (CHO-CCR2B) was identified as the highest MCP-1 receptor B expressor. […]
ii) Preparation of Membrane Fragments […]
^125I MCP-1 was prepared using Bolton and Hunter conjugation (Bolton et al., 1973, Biochem. J., 133, 529; Amersham International plc]. Equilibrium binding assays were carried out using the method of Ernst et al., 1994, J. Immunol., 152, 3541. Briefly, varying amounts of ^125I-labeled MCP-1 were added to […] of purified CHO-CCR2B cell membranes in […] of Binding Buffer. After 1 hour incubation at room temperature the binding reaction mixtures were filtered and washed 5 times through a plate washer (Packard Harvester Filtermate™ 196). Scintillation fluid (25 μl, Microscint™-20, a high efficiency liquid scintillation counting cocktail for aqueous samples) was added to each well and the plate was covered with plate sealer and counted (Packard Top Count™). […] Non-specific binding was determined by the inclusion of a 200-fold molar excess of unlabelled MCP-1 in the reaction. […]

IC50 | Molecule
7.38 µM | COc1ccc(Cn2c(C(=O)O)cc3cc(F)ccc32)cc1 [Example 3.23, 5-Fluoro-N-(4-methoxybenzyl)indole-2-carboxylic acid]

Same assay, conditions: membrane fragments from CHO-CCR2B cells; cold competition with 125I-labeled MCP-1; read-out: IC50 of MCP-1 binding to CCR2B

IC50 | Molecule
0.00011 µM | MCP-1: human Monocyte Chemoattractant Protein-1, a C—C chemokine; natural ligand used to validate the assays

Same assay, conditions: membrane fragments from CHO-CCR2B cells; equilibrium binding

Kd | Molecule
0.12 nM | MCP-1: human Monocyte Chemoattractant Protein-1, a C—C chemokine; natural ligand used to validate the assays

Tested on: not given
Experiment: not given
Conditions: not given

melting point | Molecule
184 to 185 °C | O=C(O)c1c([C@@H]2C[C@H]2C(=O)O)c2ccccc2n1Cc1ccc(Cl)c(Cl)c1 (relative stereo) [Example 3.58, N-(3,4-Dichlorobenzyl)-3-(trans-2-carboxy-cyclopropyl)indole-2-carboxylic acid]
133 to 140 °C | CCOC(=O)c1cc2cc([N+](=O)[O-])ccc2n1Cc1ccc(Cl)c(Cl)c1 [Example 1.03, Ethyl N-(3,4-dichlorobenzyl)-5-nitroindole-2-carboxylate]
95 to 96 °C | CCOC(=O)c1cc2cc(Br)ccc2n1Cc1ccc(Cl)c(Cl)c1 [Example 1.04, Ethyl 5-bromo-N-(3,4-dichlorobenzyl)indole-2-carboxylate]
256 to 257 °C | O=C(O)c1cc2ccc([N+](=O)[O-])cc2n1Cc1ccc(Cl)c(Cl)c1 [Example 3.64, N-(3,4-Dichlorobenzyl)-6-nitroindole-2-carboxylic acid]
296 to 297 °C | O=C(O)c1cc2c([N+](=O)[O-])cccc2n1Cc1ccc(Cl)c(Cl)c1 [Example 3.65, N-(3,4-Dichlorobenzyl)-4-nitroindole-2-carboxylic acid]
261 to 262 °C | CC(=O)c1ccc2c(c1)cc(C(=O)O)n2Cc1ccc(Cl)c(Cl)c1 [Example 3.85, 5-Acetyl-N-(3,4-Dichlorobenzyl)indole-2-carboxylic acid]

The remaining lines, values behind:

Molecule | melting point
O=C(O)c1cc2ccccc2n1Cc1ccc(Cl)c(Cl)c1 | 198 °C
O=C(O)c1cc2cc(Br)ccc2n1Cc1ccc(Cl)c(Cl)c1 | 232 to 233 °C
O=C(O)c1cc2ccc(Cl)cc2n1Cc1ccc(Cl)c(Cl)c1 | 219 to 220 °C
COc1cccc2c1cc(C(=O)O)n2Cc1ccc(Cl)c(Cl)c1 | 220 to 221 °C
O=C(O)c1cc2ccc(C(F)(F)F)cc2n1Cc1ccc(Cl)c(Cl)c1 | 238 to 239 °C
COc1ccc2cc(C(=O)O)n(Cc3ccc(Cl)c(Cl)c3)c2c1 | 165 to 166 °C
CC(=O)c1c(C(=O)O)n(Cc2ccc(Cl)c(Cl)c2)c2ccccc12 | 163 to 164 °C
CC(=O)Nc1ccc2c(c1)cc(C(=O)O)n2Cc1ccc(Cl)c(Cl)c1 [Example 4, N-(3,4-Dichlorobenzyl)-5-acetylaminoindole-2-carboxylic acid] | 245 to 246 °C

Source: patent US6953809B2, “Monocyte chemoattractant protein-1 inhibitor compounds” (Zeneca Limited, priority 1997, dated 2005)
